Results taken from US9447106B2, “Substituted pyrazolo[1,5-a]pyrimidines as bruton's tyrosine kinase modulators” (Beigene, Ltd., priority 2013, dated 2016).
Structures can show the parent of a compound that is named as a salt.

What follows are molecules tested against phosphorylated Btk at Tyr223 in Ramos cells (Homo sapiens (Human), UniProt Q06187) (assay: Btk pY223 cellular assay (HTRF) in Ramos cells). Conditions: 1 hour compound incubation, pervanadate or Na3VO4 stimulation.
Sequence of phosphorylated Btk at Tyr223 in Ramos cells (Q06187 whole entry): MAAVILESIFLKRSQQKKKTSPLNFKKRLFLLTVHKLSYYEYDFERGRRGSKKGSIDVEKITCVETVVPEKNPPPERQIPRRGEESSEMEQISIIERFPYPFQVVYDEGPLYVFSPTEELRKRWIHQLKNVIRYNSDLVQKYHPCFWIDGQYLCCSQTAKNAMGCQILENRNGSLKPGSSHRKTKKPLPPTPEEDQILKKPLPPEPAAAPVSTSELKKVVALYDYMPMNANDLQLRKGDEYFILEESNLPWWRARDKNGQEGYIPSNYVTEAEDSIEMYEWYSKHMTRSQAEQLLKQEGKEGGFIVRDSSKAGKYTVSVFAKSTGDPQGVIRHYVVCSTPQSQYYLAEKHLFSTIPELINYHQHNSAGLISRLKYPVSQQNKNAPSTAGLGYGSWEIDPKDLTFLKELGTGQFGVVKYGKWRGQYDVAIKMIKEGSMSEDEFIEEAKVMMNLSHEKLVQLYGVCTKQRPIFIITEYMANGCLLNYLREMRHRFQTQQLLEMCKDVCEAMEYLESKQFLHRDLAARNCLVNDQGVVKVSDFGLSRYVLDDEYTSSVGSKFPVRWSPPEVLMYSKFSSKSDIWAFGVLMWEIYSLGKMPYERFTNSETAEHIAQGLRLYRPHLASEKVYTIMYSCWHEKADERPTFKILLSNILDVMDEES
Type: cell-based
Experimental: Btk pY223 cellular assay is a HTRF based assay intended to determine the endogenous levels of phosphorylated Btk at Tyr223.
Briefly, Ramos cells were serum starved in 0.5% FBS-containing RPMI1640 for 2 hours. Following starvation, the cells were incubated with compounds to be detected at various concentrations in a CO2 incubator for 1 hour. After incubation, cells were stimulated with 1 mM pervanadate (PV) or Na3VO4 (OV) for 20 min. Then, the cells were spinned down and lysed with 1× lysis buffer at RT for 10 min (4× lysis buffer supplied in the kit). During the incubation, 1× antibody mix was prepared by diluting anti-Btk-d2 and anti-pBtk-K in detection buffer (supplied in the kit). […] After that, 18 ul of cell lysate was transferred to the assay plate pre-loaded with antibody solution. After mixing gently and spinning briefly, the plate was sealed up and kept in dark at RT for 18 hours. […] IC50 values were calculated with GraphPad Prism software using the sigmoidal dose-response function.
With C=CC(=O)N1CC[C@H]2[C@H](CNc3c(C(N)=O)c(-c4ccc(Oc5ccccc5)cc4)nn32)C1 (relative stereo) [Compound 30, Cis-7-Acryloyl-2-(4-phenoxyphenyl)-4,5,5a,6,7,8,9,9a-octahydro pyrazolo[1,5-a]pyrido[3,4-e]pyrimidine-3-carboxamide and Cis-7-acryloyl-2-(4-phenoxyphenyl)-4,4a,5,6,7,8,8a,9-octahydropyrazolo[1,5-a]pyrido[4,3-d]pyrimidine-3-carboxamide] the IC50 was 4 nM.
With CN(C)C/C=C/C(=O)N1CCC(C2CCNc3c(C(N)=O)c(-c4ccc(Oc5ccccc5)cc4)nn32)CC1 (single isomer, unassigned) [Compound 171, (R or S) (E)-7-(1-(4-(Dimethylamino)but-2-enoyl)piperidin-4-yl)-2-(4-phenoxyphenyl)-4,5,6,7-tetrahydropyrazolo-[1,5-a]pyrimidine-3-carboxamide] the IC50 was 10.9 nM.
C=CC(=O)Nc1ccccc1C1CCNc2c(C(N)=O)c(-c3ccc(OCc4ccccc4)cc3)nn21 (stereo not drawn) [Compound 10, 7-(2-Acrylamidophenyl)-2-(4-(benzyloxy)phenyl)-4,5,6,7-tetrahydro pyrazolo[1,5-a]pyrimidine-3-carboxamide] was tested, and the IC50 was 8 nM.
Molecule C=CC(=O)Nc1ccc2c(c1)CCNc1c(C(N)=O)c(-c3ccc(Oc4ccccc4)cc3)nn1-2 [Compound 72, 8-Acrylamido-2-(4-phenoxyphenyl)-5,6-dihydro-4H-benzo[f]pyrazolo[1,5-a][1,3]diazepine-3-carboxamide] has an IC50 of 10.5 nM.
With C=CC(=O)NCC1(C)CCNc2c(C(N)=O)c(-c3ccc(Oc4ccccc4)cc3)nn21 (stereo not drawn) [Compound 143, 7-(acrylamidomethyl)-7-methyl-2-(4-phenoxyphenyl)-4,5,6,7-tetrahydropyrazolo[1,5-a]pyrimidine-3-carboxamide] the IC50 was 4.1 nM.
For C=CC(=O)Nc1ccccc1C1CCNc2c(C(N)=O)c(-c3ccc(OCc4ccccn4)c(Cl)c3)nn21 (stereo not drawn) [Compound 146, 7-(2-Acrylamido-phenyl)-2-(3-chloro-4-(pyridin-2-ylmethoxy)phenyl)-4,5,6,7-tetrahydropyrazolo[1,5-a]pyrimidine-3-carboxamide], the IC50 was 4 nM.
C=CC(=O)Nc1ccccc1C1CCNc2c(C(N)=O)c(-c3ccc(F)c(Br)c3)nn21 (stereo not drawn) [Compound 152, 7-(2-Acrylamidophenyl)-2-(3-bromo-4-fluorophenyl)-4,5,6,7-tetrahydropyrazolo[1,5-a]pyrimidine-3-carboxamide] was tested, and the IC50 was 1.8 nM.
For NC(=O)c1c(-c2ccc(F)c(Cl)c2)nn2c1NCCC2c1ccccc1NC(=O)/C=C/CN1CCCCC1 (stereo not drawn) [Compound 153, (E)-2-(3-Chloro-4-fluorophenyl)-7-(2-(4-(piperidin-1-yl)but-2-enamido)phenyl)-4,5,6,7-tetrahydropyrazolo-[1,5-a]pyrimidine-3-carboxamide], the IC50 was 165 nM.
In the case of C=CC(=O)Nc1ccccc1C1CCNc2c(C(N)=O)c(-c3ccc(Cl)c(F)c3)nn21 (stereo not drawn) [Compound 154, 7-(2-Acrylamidophenyl)-2-(4-chloro-3-fluorophenyl)-4,5,6,7-tetrahydropyrazolo[1,5-a]pyrimidine-3-carboxamide], the IC50 is reported as 1.5 nM.
C=CC(=O)Nc1ccccc1C1CCNc2c(C(N)=O)c(-c3ccc(Cl)c(Cl)c3)nn21 (stereo not drawn) [Compound 156, 7-(2-Acrylamidophenyl)-2-(3,4-dichlorophenyl)-4,5,6,7-tetrahydropyrazolo-[1,5-a]pyrimidine-3-carboxamide] gave an IC50 of 6.8 nM.
C=CC(=O)Nc1ccccc1C1CCNc2c(C(N)=O)c(-c3ccc(F)c(C)c3)nn21 (stereo not drawn) [Compound 157, 7-(2-Acrylamidophenyl)-2-(4-fluoro-3-methylphenyl)-4,5,6,7-tetrahydropyrazolo[1,5-a]pyrimidine-3-carboxamide] gave an IC50 of 20 nM.
Work on C=CC(=O)Nc1ccccc1C1CCNc2c(C(N)=O)c(-c3ccc(Cl)c(OC)c3)nn21 (stereo not drawn) [Compound 160, 7-(2-Acrylamidophenyl)-2-(4-chloro-3-methoxyphenyl)-4,5,6,7-tetrahydropyrazolo[1,5-a]pyrimidine-3-carboxamide] yielded an IC50 of 1.3 nM.
Work on C=CC(=O)Nc1ccccc1C1CCNc2c(C(N)=O)c(-c3ccc(C(F)(F)F)c(Cl)c3)nn21 (stereo not drawn) [Compound 162, 7-(2-Acrylamidophenyl)-2-(3-chloro-4-(trifluoromethyl)phenyl)-4,5,6,7-tetrahydropyrazolo[1,5-a]pyrimidine-3-carboxamide] yielded an IC50 of 3.2 nM.
Work on COc1cc(-c2nn3c(c2C(N)=O)NCCC3c2ccccc2NC(=O)/C=C/CN(C)C)ccc1C (stereo not drawn) [Compound 165, (E)-7-(2-(4-(Dimethylamino)but-2-enamido)phenyl)-2-(3-methoxy-4-methylphenyl)-4,5,6,7-tetrahydropyrazolo[1,5-a]pyrimidine-3-carboxamide] yielded an IC50 of 19.1 nM.
For C=CC(=O)Nc1ccccc1C1CCNc2c(C(N)=O)c(-c3cc(Cl)c(OC)c(Cl)c3)nn21 (stereo not drawn) [Compound 169, 7-(2-Acrylamido-phenyl)-2-(3,5-dichloro-4-methoxyphenyl)-4,5,6,7-tetrahydropyrazolo-[1,5-a]pyrimidine-3-carboxamide], the IC50 was 7 nM.
NC(=O)c1c(-c2ccc(Oc3ccccc3)cc2)nn2c1NCCC2C1CCN(C(=O)/C=C/CN2CCCCC2)CC1 (stereo not drawn) [Compound 170, (E)-2-(4-Phenoxyphenyl)-7-(1-(4-(piperidin-1-yl)but-2-enoyl)piperidin-4-yl)-4,5,6,7-tetrahydropyrazolo[1,5-a]pyrimidine-3-carboxamide] was tested, and the IC50 was 33.7 nM.
C=CC(=O)N1CC(C2(C)CCNc3c(C(N)=O)c(-c4ccc(Oc5ccccc5)cc4)nn32)C1 (stereo not drawn) [Compound 175, 7-(1-Acryloylazetidin-3-yl)-7-methyl-2-(4-phenoxyphenyl)-4,5,6,7-tetrahydropyrazolo-[1,5-a]pyrimidine-3-carboxamide] was tested, and the IC50 was 17.6 nM.
With NC(=O)c1c(-c2ccc(Oc3ccccc3)cc2)nn2c1NCC[C@H]2C1CCN(C(=O)CCCl)CC1 [Compound 177, (S)-7-(1-(3-chloropropanoyl)piperidin-4-yl)-2-(4-phenoxy-phenyl)-4,5,6,7-tetrahydropyrazolo-[1,5-a]pyrimidine-3-carboxamide] the IC50 was 3.9 nM.
In the case of NC(=O)c1c(-c2ccc(Oc3ccccc3)cc2)nn2c1NCC[C@H]2C1CCN(C(=O)/C=C/CN2CCN(CCNC(=O)CCCC(=O)NCCCOCCOCCOCCCNC(=O)CCCC[C@H]3SC[C@H]4NC(=O)N[C@H]43)CC2)CC1 [Compound 178, N1-(2-(4-((E)-4-(4-((S)-3-carbamoyl-2-(4-phenoxyphenyl)-4,5,6,7-tetrahydropyrazolo[1,5-a]pyrimidin-7-yl)piperidin-1-yl)-4-oxobut-2-en-1-yl)piperazin-1-yl)ethyl)-N5-(15-oxo-19-((3aR,4R,6aS)-2-oxohexahydro-1H-thieno[3,4-d]imidazol-4-yl)-4,7,10-trioxa-14-azanonadecyl)glutaramide trifluoroacetate], the IC50 is reported as > 1000 nM.
CC#CC(=O)N1CC(C2CCNc3c(C(N)=O)c(-c4ccc(Oc5ccccc5)cc4)nn32)C1 (stereo not drawn) [Compound 184, 7-(1-(But-2-ynoyl)azetidin-3-yl)-2-(4-phenoxyphenyl)-4,5,6,7-tetrahydropyrazolo-[1,5-a]pyrimidine-3-carboxamide] gave an IC50 of 6.7 nM.
CCC#CC(=O)N1CCC([C@@H]2CCNc3c(C(N)=O)c(-c4ccc(Oc5ccccc5)cc4)nn32)CC1 [Compound 186, (S)-7-(1-(Pent-2-ynoyl)piperidin-4-yl)-2-(4-phenoxyphenyl)-4,5,6,7-tetrahydropyrazolo-[1,5-a]pyrimidine-3-carboxamide] showed an IC50 of 10.3 nM.
NC(=O)c1c(-c2ccc(Oc3ccccc3)cc2)nn2c1NCC[C@H]2C1CCN(C(=O)C#CCN2CCCC2)CC1 [Compound 187, (S)-2-(4-Phenoxyphenyl)-7-(1-(4-(pyrrolidin-1-yl)but-2-ynoyl)piperidin-4-yl)-4,5,6,7-tetrahydropyrazolo-[1,5-a]pyrimidine-3-carboxamide] showed an IC50 of 7.3 nM.
CN(C)CC#CC(=O)N1CCC([C@@H]2CCNc3c(C(N)=O)c(-c4ccc(Oc5ccccc5)cc4)nn32)CC1 [Compound 188, (S)-7-(1-(4-(Dimethylamino)but-2-ynoyl)piperidin-4-yl)-2-(4-phenoxyphenyl)-4,5,6,7-tetrahydropyrazolo-[1,5-a]pyrimidine-3-carboxamide] was tested, and the IC50 was 8.5 nM.
Work on C=CC(=O)Nc1ccccc1C1CCNc2c(C(N)=O)c(-c3ccc(F)c(Cl)c3)nn21 (stereo not drawn) [Compound 196, 7-(2-Acrylamidophenyl)-2-(3-chloro-4-fluorophenyl)-4,5,6,7-tetrahydropyrazolo-[1,5-a]pyrimidine-3-carboxamide] yielded an IC50 of 2 nM.

Each molecule was assayed against Recombinant Btk (Homo sapiens (Human), UniProt Q06187) (assay: Btk kinase assay (TR-FRET)). Conditions: not given.
Sequence of Recombinant Btk (Q06187 whole entry): as above
C=CC(=O)N1CC[C@H]2[C@H](CNc3c(C(N)=O)c(-c4ccc(Oc5ccccc5)cc4)nn32)C1 (relative stereo) [Compound 30, Cis-7-Acryloyl-2-(4-phenoxyphenyl)-4,5,5a,6,7,8,9,9a-octahydro pyrazolo[1,5-a]pyrido[3,4-e]pyrimidine-3-carboxamide and Cis-7-acryloyl-2-(4-phenoxyphenyl)-4,4a,5,6,7,8,8a,9-octahydropyrazolo[1,5-a]pyrido[4,3-d]pyrimidine-3-carboxamide] showed an IC50 of 1 nM.
Molecule CN(C)C/C=C/C(=O)N1CCC(C2CCNc3c(C(N)=O)c(-c4ccc(Oc5ccccc5)cc4)nn32)CC1 (single isomer, unassigned) [Compound 171, (R or S) (E)-7-(1-(4-(Dimethylamino)but-2-enoyl)piperidin-4-yl)-2-(4-phenoxyphenyl)-4,5,6,7-tetrahydropyrazolo-[1,5-a]pyrimidine-3-carboxamide] has an IC50 of 1.4 nM.
Molecule NC(=O)c1c(-c2ccc(Oc3ccccc3)cc2)nn2c1NCC[C@H]2C1CCN(C(=O)/C=C/CN2CCN(CCNC(=O)CCCC(=O)NCCCOCCOCCOCCCNC(=O)CCCC[C@H]3SC[C@H]4NC(=O)N[C@H]43)CC2)CC1 [Compound 178, N1-(2-(4-((E)-4-(4-((S)-3-carbamoyl-2-(4-phenoxyphenyl)-4,5,6,7-tetrahydropyrazolo[1,5-a]pyrimidin-7-yl)piperidin-1-yl)-4-oxobut-2-en-1-yl)piperazin-1-yl)ethyl)-N5-(15-oxo-19-((3aR,4R,6aS)-2-oxohexahydro-1H-thieno[3,4-d]imidazol-4-yl)-4,7,10-trioxa-14-azanonadecyl)glutaramide trifluoroacetate] has an IC50 of 46 nM.

Same assay, conditions: IC50 (nM) Btk, recombinant Btk, 1 hour pre-incubation, ATP at Km
With C=CC(=O)Nc1ccc2c(c1)CCNc1c(C(N)=O)c(-c3ccc(Oc4ccccc4)cc3)nn1-2 [Compound 72, 8-Acrylamido-2-(4-phenoxyphenyl)-5,6-dihydro-4H-benzo[f]pyrazolo[1,5-a][1,3]diazepine-3-carboxamide] the IC50 was 4.1 nM.

Same assay, conditions: read-out: IC50 (nM) Btk; recombinant Btk, 1 hour pre-incubation, ATP at Km
With C=CC(=O)Nc1ccccc1C1CCNc2c(C(N)=O)c(-c3ccc(OCc4ccccc4)cc3)nn21 (stereo not drawn) [Compound 10, 7-(2-Acrylamidophenyl)-2-(4-(benzyloxy)phenyl)-4,5,6,7-tetrahydro pyrazolo[1,5-a]pyrimidine-3-carboxamide] the IC50 was 1.5 nM.
For C=CC(=O)N1CC[C@H]2Nc3c(C(N)=O)c(-c4ccc(Oc5ccccc5)cc4)nn3C[C@H]2C1 [Compound 31], the IC50 was 15 nM.
